Laboratory results published in patent EP2907512A1, “Inhibitors of MMP-12 as antiviral Agents” (COMMISSARIAT A L'ENERGIE ATOMIQUE ET AUX ENERGIES …, priority 2014, dated 2015).

Test system: HeLa cells
Assay: IFNα secretion (ELISA) and IFNα immunostaining in CVB3-infected HeLa cells pre-treated with inhibitors
Type: cell-based
Conditions: for IFNα secretion: cells infected with CVB3, ELISA of medium, vs DMSO control

Structure (SMILES) | intracellular IFNα staining (HeLa cells infected with CVB3 for 4 h, immunostaining) | IFNα secretion
Cc1ccc(S(=O)(=O)/C=C/C#N)cc1 [Bay11-7082] | greater intracellular IFNα staining | not secreted
N#CC(=C(/N)Sc1ccccc1N)/C(C#N)=C(\N)Sc1ccccc1N [Compound U0126] |  | secreted
